In patent US20250134874A1, “PHARMACEUTICAL FORMULATIONS COMPRISING 3-({[(4R)-7-{METHYL[4-(PROPAN-2-YL)PHENYL]AMINO}-3,4-DIHYDRO-2H-1-BENZOPYRAN-4-YL]METHYL}AMINO)PYRIDINE-4-CARBOXYLIC ACID” (TACHYON THERAPEUTICS, INC., priority 2021, published 2025):
pEC50, pIC50: −log10 of the molar value.

Tested on: 301 cancer cell lines from different tumor types (OncoPanel; HD Biosciences)
Assay: 2D cell viability inhibition assay (CellTiter-Glo) in cancer cell line panel
Assay type: cell-based
Conditions: Homo sapiens
Protocol: In a larger screening study, compound 1 was evaluated across a broad cancer cell line panel (OncoPanel; HD Biosciences) composed of 301 cancer cell lines from different tumor types.
2D cell viability inhibition assays were performed in multiwell plates seeded with cells from the panel. After seeding, the plates were cultured overnight in a humidified incubator at 37° C. to promote adherence. Assays were initiated in individual wells by adding either DMSO as a vehicle control, growth media as a blank, or serially diluted compound 1 (10 μM to 0.0005 μM with 1:3 serial dilution). Cultures were incubated for 168 hours after which the number of viable cells in each test well was assessed using the CellTiter-Glo® Luminescent Cell Viability Assay. Luminescence readouts were performed using an EnVision® Multilabel Reader and the compound 1 readouts were normalized to the DMSO control readouts, expressed as a percent of the control. Outliers were flagged out by visual inspection. Percent of control was plotted against the corresponding compound 1 concentration and the absolute IC50 value was determined using four-parameter logistic non-linear regression as the concentration where inhibition was 50% of the control. For maximum inhibition <50%, the absolute IC50 was reported as >10. In addition to EC50 and IC50, AUC was determined and was normalized to the area corresponding to theoretical no-inhibition (the rectangular area defined by the compound dose range and 0 to 100 in y). Emax was recorded as the minimum in y with the compound dose range. For those cell lines where Emax>40, EC50 was manually set to 10 μM. A hierarchical clustering algorithm based on Euclidean distance between the standardized input values and “Ward.D” method as implemented in R hclust function was used to visualize the compound 1 cellular potency data. The sensitive/moderate/resistant calls for each cell line was determined by visually inspecting the resulting clustering dendrogram. All the analyses were done in R Core Team.

[1] = Detroit 562, DETROIT562 cell line
[2] = Granta-519, GRANTA519 cell line
[3] = KARPAS-422, KARPAS422 cell line

Structure (SMILES): CC(C)c1ccc(N(C)c2ccc3c(c2)OCC[C@H]3CNc2cnccc2C(=O)O)cc1 [Compound 1, 3-({[(4R)-7-{methyl[4-(propan-2-yl)phenyl]amino}-3,4-dihydro-2H-1-benzopyran-4-yl]methyl}amino)pyridine-4-carboxylic acid]
- pIC50 (Calu-6, CALU6 cell line): 7.83
- pEC50 (Caov-3, CAOV3 cell line): 8.28
- pIC50 (Caov-3, CAOV3 cell line): 8.19
- pIC50 (Capan-2, 168 h, CAPAN2, pancreas, ductal carcinoma, 168 hours): < 5.00
- pEC50 (DLD-1, DLD1 cell line): 8.83
- pIC50 (DLD-1, DLD1 cell line): 8.60
- pIC50 (DMS-53, 168 h, DMS53, lung, small cell carcinoma, 168 hours): < 5.00
- pEC50 (DMS-79, DMS79 cell line): 8.89
- pIC50 (DMS-79, DMS79 cell line): 8.46
- pIC50 (DMS-153, DMS153 cell line): < 5.00
- pEC50 (DMS-273, DMS273 cell line): 7.79
- pIC50 (DMS-273, DMS273 cell line): 7.65
- pEC50 (DU-145, DU145 cell line): 7.78
- pIC50 (DU-145, DU145 cell line): 7.75
- pEC50 (DV-90, DV90 cell line): 8.27
- pIC50 (DV-90, DV90 cell line): 8.13
- pIC50 (Daoy, 168 h, central nervous system, NS): < 5.00
- pEC50 (Daudi, DAUDI cell line): 7.87
- pIC50 (Daudi, DAUDI cell line): 7.83
- pEC50 [1]: 7.98
- pIC50 [1]: 7.78
- pEC50 (FTC-133, FTC133 cell line): 8.37
- pIC50 (FTC-133, FTC133 cell line): 8.13
- pIC50 (G-361, 168 h, G361, skin, NS, 168 hours): < 5.00
- pEC50 (G-401, G401 cell line): 8.36
- pIC50 (G-401, G401 cell line): 8.35
- pEC50 (GI-1, GI1 cell line): 6.53
- pIC50 (GI-1, GI1 cell line): 6.54
- pEC50 [2]: 7.83
- pIC50 [2]: 7.75
- pIC50 (HCC38, 168 h, HCC38, breast, ductal carcinoma, 168 hours): < 5.00
- pEC50 (HCC70, HCC70 cell line): 8.07
- pIC50 (HCC70, HCC70 cell line): 7.96
- pEC50 (HCC78, HCC78 cell line): 7.90
- pIC50 (HCC78, HCC78 cell line): 7.62
- pEC50 (HCC95, HCC95 cell line): 8.48
- pIC50 (HCC95, HCC95 cell line): 8.36
- pIC50 (HCC827, 168 h, HCC827, lung, adenocarcinoma, 168 hours): < 5.00
- pIC50 (HCC1143, HCC1143 cell line): < 5.00
- pEC50 (HCC1187, HCC1187 cell line): 8.51
- pIC50 (HCC1187, HCC1187 cell line): 8.19
- pIC50 (HCC1419, 168 h, HCC1419, breast, ductal carcinoma, 168 hours): < 5.00
- pIC50 (HCC1428, 168 h, HCC1428, breast, NS, 168 hours): < 5.00
- pEC50 (HCC1599, HCC1599 cell line): 8.42
- pIC50 (HCC1599, HCC1599 cell line): 8.25
- pEC50 (HCC1806, HCC1806 cell line): 8.29
- pIC50 (HCC1806, HCC1806 cell line): 7.89
- pIC50 (HCC1937, 168 h, HCC1937, breast, ductal carcinoma, 168 hours): < 5.00
- pIC50 (HCC1954, HCC1954 cell line): 7.39
- pIC50 (HCC2935, HCC2935 cell line): < 5.00
- pEC50 (HCT-15, HCT15 cell line): 8.83
- pIC50 (HCT-15, HCT15 cell line): 8.75
- pEC50 (HCT-116, HCT116 cell line): 8.30
- pIC50 (HCT-116, HCT116 cell line): 7.69
- pEC50 (HEL, HEL cell line): 8.44
- pIC50 (HEL, HEL cell line): 7.93
- pEC50 (HL-60, HL60 cell line): 8.09
- pIC50 (HL-60, HL60 cell line): 8.03
- pEC50 (HLE, HLE cell line): 7.98
- pIC50 (HLE, HLE cell line): 7.95
- pEC50 (HMCB, HMCB cell line): 9.09
- pIC50 (HMCB, HMCB cell line): 7.95
- pEC50 (HPAC, HPAC cell line): 8.62
- pIC50 (HPAC, HPAC cell line): 8.41
- pEC50 (HSC-2, HSC2 cell line): 8.29
- pIC50 (HSC-2, HSC2 cell line): 8.10
- pIC50 (HSC-3, HSC3 cell line): 7.22
- pEC50 (HSC-4, HSC4 cell line): 8.36
- pIC50 (HSC-4, HSC4 cell line): 8.16
- pEC50 (HT55, HT55 cell line): 7.90
- pIC50 (HT55, HT55 cell line): 7.85
- pEC50 (HT-29, HT29 cell line): 7.64
- pIC50 (HT-29, HT29 cell line): 7.43
- pIC50 (HT-144, 168 h, HT144, skin, NS, 168 hours): < 5.00
- pEC50 (HT-1080, HT1080 cell line): 7.89
- pIC50 (HT-1080, HT1080 cell line): 7.85
- pEC50 (HT-1376, HT1376 cell line): 7.75
- pIC50 (HT-1376, HT1376 cell line): 7.44
- pEC50 (HepG2, HEPG2 cell line): ≤ 5.00
- pIC50 (HepG2, HEPG2 cell line): 7.28
- pEC50 (Hs 294T, HS294T cell line): 7.51
- pIC50 (Hs 294T, HS294T cell line): 7.18
- pIC50 (Hs 695T, 168 h, HS695T, skin, NS): < 5.00
- pEC50 (Hs-578T, HS578T cell line): 8.16
- pIC50 (Hs-578T, HS578T cell line): 7.86
- pEC50 (HuH-1, HUH1 cell line): 7.98
- pIC50 (HuH-1, HUH1 cell line): 7.93
- pEC50 (HuTu80, HUTU80 cell line): 8.38
- pIC50 (HuTu80, HUTU80 cell line): 8.36
- pEC50 (Huh-7, HUH7 cell line): 7.89
- pIC50 (Huh-7, HUH7 cell line): 7.86
- pIC50 (J82, J82 cell line): < 5.00
- pEC50 (JIMT-1, JIMT1 cell line): 7.33
- pIC50 (JIMT-1, JIMT1 cell line): 7.21
- pEC50 (JeKo-1, JEKO1 cell line): 8.64
- pIC50 (JeKo-1, JEKO1 cell line): 8.74
- pEC50 (Jurkat, JURKAT cell line): 8.78
- pIC50 (Jurkat, JURKAT cell line): 8.83
- pEC50 (K562, K562 cell line): 8.39
- pIC50 (K562, K562 cell line): 8.34
- pIC50 (KALS-1, KALS1 cell line): < 5.00
- pEC50 [3]: 8.27
- pIC50 [3]: 8.19
- pEC50 (KATO III, KATOIII cell line): 7.39
- pIC50 (KATO III, KATOIII cell line): 7.36
- pEC50 (KM12, KM12 cell line): 8.20
- pIC50 (KM12, KM12 cell line): 8.13
- pEC50 (KMS-11, KMS11 cell line): 7.96
- pIC50 (KMS-11, KMS11 cell line): 7.91
- pEC50 (KNS-62, KNS62 cell line): 7.91
- pIC50 (KNS-62, KNS62 cell line): 7.83
- pEC50 (KU-19-19, KU1919 cell line): 8.06
- pIC50 (KU-19-19, KU1919 cell line): 7.99
